From patent US20240327393A1 (SIRONAX LTD., priority 2021, published 2024)

Each molecule was assayed on HT-1080 (ATCC, CCL-121) cells (assay: HT-1080 cell viability assay with ferroptosis inducer RSL3 (Cell Titer-Glo)). Conditions: Homo sapiens; HT-1080 cells treated with RSL3; 3-fold, 10-point dilution, 1.1 μM highest concentration; Table 2; read-out: EC50 (nM), ferroptosis inhibitory activity.
Format: cell-based
Method in brief: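 EC50 was derived by sigmoidal dose-response regression of CellTiter-Glo luminescence viability, expressed relative to untreated wells. Compounds were tested in a ten-point, threefold dilution series (highest 1.1 μM) in the presence of the ferroptosis inducer RSL3. HT-1080 cells had been seeded at 6000 per well and grown overnight first.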

Row | EC50 [nM] | Structure (SMILES)
1 | 0.1 to 100 | CC(=O)N1Cc2ccc(Nc3ccc(N4CCC(C(F)(F)F)CC4)cc3)cc2C1 [Compound 186, 1-(5-((4-(4-(trifluoromethyl)piperidin-1-yl)phenyl)amino)isoindolin-2-yl) ethan-1-one]
2 | 0.1 to 100 | Cn1oc2cc(Nc3ccc(N4CCC(C(F)(F)F)CC4)cc3)ccc2c1=O [Compound 187, 2-methyl-6-((4-(4-(trifluoromethyl)piperidin-1-yl)phenyl)amino)benzo[d]isoxazol-3(2H)-one]
3 | 100 to 1000 | Cn1c(=O)c2ccc(Nc3ccc(N4CCC(C(F)(F)F)CC4)cc3)cc2n1C(=O)OC(C)(C)C [Compound 188, tert-butyl 2-methyl-3-oxo-6-((4-(4-(trifluoromethyl)piperidin-1-yl)phenyl)amino)-2,3-dihydro-1H-indazole-1-carboxylate]
4 | 0.1 to 100 | CC1(C)c2ccc(Nc3ccc(N4CCC(C(F)(F)F)CC4)cc3)cc2CN1C(=O)C1CC1 [Compound 189, cyclopropyl(1,1-dimethyl-5-((4-(4-(trifluoromethyl)piperidin-1-yl)phenyl)amino)isoindolin-2-yl)methanone]
5 | 0.1 to 100 | O=C(C1CC1)N1Cc2ccc(Nc3ccc(N4CCC(C(F)(F)F)CC4)cc3)cc2C1 [Compound 190, cyclopropyl(5-((4-(4-(trifluoromethyl)piperidin-1-yl)phenyl)amino)isoindolin-2-yl)methanone]
6 | 0.1 to 100 | Cn1[nH]c2cc(Nc3ccc(N4CCC(C(F)(F)F)CC4)cc3)ccc2c1=O [Compound 191, 2-methyl-6-((4-(4-(trifluoromethyl)piperidin-1-yl)phenyl)amino)-1,2-dihydro-3H-indazol-3-one]
7 | 0.1 to 100 | CC1CCN(c2c(F)cc(Nc3ccc4c(c3)CN(C)C4=O)cc2F)CC1 [Compound 192, 5-((3,5-difluoro-4-(4-methylpiperidin-1-yl)phenyl)amino)-2-methylisoindolin-1-one]
8 | 0.1 to 100 | CCN1Cc2cc(Nc3cc(F)c(N4CCC(C)CC4)c(F)c3)ccc2C1=O [Compound 193, 5-((3,5-difluoro-4-(4-methylpiperidin-1-yl)phenyl)amino)-2-ethylisoindolin-1-one]
9 | 0.1 to 100 | CN1Cc2cc(Nc3ccc(N4CCC(C(F)(F)F)CC4)cc3)cnc2C1=O [Compound 194, 6-methyl-3-((4-(4-(trifluoromethyl)piperidin-1-yl)phenyl)amino)-5,6-dihydro-7H-pyrrolo[3,4-b]pyridin-7-one]
10 | 0.1 to 100 | CCN1Cc2ccc(Nc3cnc(N4CCCCC4)c(F)c3)cc2C1 [Compound 195, 2-ethyl-N-(5-fluoro-6-(piperidin-1-yl)pyridin-3-yl)isoindolin-5-amine]
11 | 0.1 to 100 | Fc1cc(Nc2ccc3c(c2)CN(CC2CC2)C3)cnc1N1CCCCC1 [Compound 196, 2-(cyclopropylmethyl)-N-(5-fluoro-6-(piperidin-1-yl)pyridin-3-yl) isoindolin-5-amine]
12 | 0.1 to 100 | CC(C)(C)N1Cc2cc(Nc3ccc(N4CCC(C(F)(F)F)CC4)cc3)ccc2C1=O [Compound 197, 2-(tert-butyl)-5-((4-(4-(trifluoromethyl)piperidin-1-yl)phenyl)amino) isoindolin-1-one]
13 | 0.1 to 100 | COCCOCCN1Cc2cc(Nc3ccc(N4CCC(C(F)(F)F)CC4)cc3)ccc2C1=O [Compound 198, 2-(2-(2-methoxyethoxy)ethyl)-5-((4-(4-(trifluoromethyl)piperidin-1-yl)phenyl)amino)isoindolin-1-one]
14 | 0.1 to 100 | O=C1c2ccc(Nc3ccc(N4CCC(C(F)(F)F)CC4)cc3)cc2CN1Cc1ccccc1 [Compound 199, 2-benzyl-5-((4-(4-(trifluoromethyl)piperidin-1-yl)phenyl)amino) isoindolin-1-one]
15 | 0.1 to 100 | CN(C)CCCN1Cc2cc(Nc3ccc(N4CCC(C(F)(F)F)CC4)cc3)ccc2C1=O [Compound 200, 2-(3-(dimethylamino)propyl)-5-((4-(4-(trifluoromethyl)piperidin-1-yl)phenyl)amino)isoindolin-1-one]
